The target in this experiment is T1, Human Neuropeptide Y2 Receptor (Homo sapiens, UniProt P49146).
T1 construct: purchased CHEMICON HTS066M
T1 sequence (P49146 1-381): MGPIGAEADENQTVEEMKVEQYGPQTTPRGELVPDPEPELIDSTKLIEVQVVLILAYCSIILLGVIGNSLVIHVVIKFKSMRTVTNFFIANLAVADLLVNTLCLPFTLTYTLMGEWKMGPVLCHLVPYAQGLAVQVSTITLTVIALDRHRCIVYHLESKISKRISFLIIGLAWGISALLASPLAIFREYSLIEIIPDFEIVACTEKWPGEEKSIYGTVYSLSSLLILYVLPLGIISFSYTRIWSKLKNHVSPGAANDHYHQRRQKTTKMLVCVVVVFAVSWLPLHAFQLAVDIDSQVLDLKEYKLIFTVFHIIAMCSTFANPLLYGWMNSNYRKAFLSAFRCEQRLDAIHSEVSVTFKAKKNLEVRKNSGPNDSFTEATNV
Nature of the experiment: Radioligand binding competition assay (RLB). The note with it: Table 3; human 125I-PYY (1-36) 0.02 nM, Y2 receptor membranes; read-out: Ki. The procedure, abridged: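 IC50 values come from nonlinear regression of sigmoidal dose-response curves of filter-bound radioactivity. Peptides competed with radioligand at human Y2 receptor membranes (0.5 μg protein/well) for 2 h at room temperature in pH 7.4 HEPES buffer containing Mg2+, Ca2+ and 0.2% ovalbumin.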

These results are taken from patent US12559529B2, “NPY2 receptor agonists” (Boehringer Ingelheim International GmbH, priority 2019, dated 2026).

Each structure is given as a SMILES string. *1 amine or outer side, *2 acyl side, *3 side chain or, on linkers, in order; H or OH if unused. Where a SMILES comes first, the peptide text is derived from it. Side-chain parts run from the residue outwards. The star is where a group is joined. C18 diacid = O=C(O)CCCCCCCCCCCCCCCCC(=O)*; γGlu = O=C(O)[C@H](CCC(=O)[*:2])N[*:1]; Isovaleryl = CC(C)CC(=O)*; AEEA = NCCOCCOCC(=O)O

A word on the Ki: it is a dissociation constant, usually derived from enzyme kinetics or from competition with a known ligand. Turning to `CC(C)CC(=O)N[C@@H](C)C(=O)N1CCC[C@H]1C(=O)N[C@@H](CCC(=O)O)C(=O)N[C@@H](CCCCNC(=O)COCCOCCNC(=O)COCCOCCNC(=O)CC[C@H](NC(=O)CCCCCCCCCCCCCCCCC(=O)O)C(=O)O)C(=O)N[C@H](C(=O)N[C@@H](CCC(=O)O)C(=O)N[C@@H](CCC(=O)O)C(=O)N[C@@H](CCC(=O)O)C(=O)N[C@@H](C)C(=O)N[C@@H](CO)C(=O)N1CCC[C@H]1C(=O)N[C@@H](CCC(=O)O)C(=O)N[C@@H](CCC(=O)O)C(=O)N[C@@H](CC(C)C)C(=O)N[C@@H](CCC(N)=O)C(=O)N[C@@H](CCCNC(=N)N)C(=O)N[C@@H](Cc1ccc(O)cc1)C(=O)N[C@@H](Cc1ccc(O)cc1)C(=O)N[C@H](C(=O)N[C@@H](CO)C(=O)N[C@@H](CC(C)C)C(=O)N[C@@H](CCCNC(=N)N)C(=O)N[C@@H](Cc1c[nH]cn1)C(=O)N[C@@H](Cc1ccc(O)cc1)C(=O)N[C@@H](Cc1ccc(O)cc1)C(=O)N[C@@H](CC(N)=O)C(=O)N[C@@H](Cc1c[nH]c2ccccc12)C(=O)N[C@@H](CC(C)C)C(=O)N[C@H](C(=O)N[C@@H](CCCNC(=N)N)C(=O)N[C@@H](CCC(N)=O)C(=O)N[C@@H](CCCNC(=N)N)C(=O)N[C@@H](Cc1ccc(O)cc1)C(N)=O)[C@@H](C)O)C(C)C)C(C)C` [Compound 153, N{alpha-4}-(3-methylbutanoyl)-N{epsilon-7}-[2-(2-{2-[2-(2-{2-[(4S)-4-carboxy-4-(17-carboxyheptadecanamido)butanamido]ethoxy}ethoxy)acetamido]ethoxy}ethoxy)acetamido]-[4A,7K,8V,9E,11E,18Q,22V,28Y,30W,31L]hPYY (4-36)] (Isovaleryl-APEK([AEEA-AEEA-γGlu-C18 diacid])VEEEASPEELQRYYVSLRHYYNWLTRQRY-NH2), the Ki is 14.4 nM.

Consider `CC(C)CC(=O)N[C@@H](C)C(=O)N1CCC[C@H]1C(=O)N[C@@H](CCC(=O)O)C(=O)N[C@@H](CCCCNC(=O)COCCOCCNC(=O)COCCOCCNC(=O)CC[C@H](NC(=O)CCCCCCCCCCCCCCCCC(=O)O)C(=O)O)C(=O)N1CCC[C@H]1C(=O)N[C@@H](CCC(=O)O)C(=O)N[C@@H](CCC(=O)O)C(=O)N[C@@H](CC(=O)O)C(=O)N[C@@H](C)C(=O)N[C@@H](CO)C(=O)N1CCC[C@H]1C(=O)N[C@@H](CCC(=O)O)C(=O)N[C@@H](CCC(=O)O)C(=O)N[C@H](C(=O)N[C@@H](CCC(N)=O)C(=O)N[C@@H](CCCNC(=N)N)C(=O)N[C@@H](Cc1ccc(O)cc1)C(=O)N[C@@H](Cc1ccc(O)cc1)C(=O)N[C@H](C(=O)N[C@@H](CO)C(=O)N[C@@H](CC(C)C)C(=O)N[C@@H](CCCNC(=N)N)C(=O)N[C@@H](Cc1c[nH]cn1)C(=O)N[C@@H](Cc1ccc(O)cc1)C(=O)N[C@@H](Cc1ccc(O)cc1)C(=O)N[C@@H](CC(N)=O)C(=O)N[C@@H](Cc1c[nH]c2ccccc12)C(=O)N[C@@H](CC(C)C)C(=O)N[C@H](C(=O)N[C@@H](CCCNC(=N)N)C(=O)N[C@@H](CCC(N)=O)C(=O)N[C@@H](CCCNC(=N)N)C(=O)N[C@@H](Cc1ccc(O)cc1)C(N)=O)[C@@H](C)O)C(C)C)[C@@H](C)O` [Compound 155, N{alpha-4}-(3-methylbutanoyl)-N{epsilon-7}-[2-(2-{2-[2-(2-{2-[(4S)-4-carboxy-4-(17-carboxyheptadecanamido)butanamido]ethoxy}ethoxy)acetamido]ethoxy}ethoxy)acetamido]-[4A,7K,9E,17T,18Q,22V,28Y,30W,31L]hPYY (4-36)], for which the Ki is 2.05 nM. For `CC(C)CC(=O)N[C@@H](C)C(=O)N1CCC[C@H]1C(=O)N[C@@H](CCC(=O)O)C(=O)N[C@@H](CCCCNC(=O)COCCOCCNC(=O)COCCOCCNC(=O)CC[C@H](NC(=O)CCCCCCCCCCCCCCCCC(=O)O)C(=O)O)C(=O)N1CCC[C@H]1C(=O)N[C@@H](CCC(=O)O)C(=O)N[C@@H](CCC(=O)O)C(=O)N[C@@H](CC(=O)O)C(=O)N[C@@H](C)C(=O)N[C@@H](CO)C(=O)N1CCC[C@H]1C(=O)N[C@@H](CCC(=O)O)C(=O)N[C@@H](CCC(=O)O)C(=O)N[C@@H](CC(C)C)C(=O)N[C@@H](CCC(N)=O)C(=O)N[C@@H](CCCNC(=N)N)C(=O)N[C@@H](Cc1ccc(O)cc1)C(=O)N[C@@H](Cc1ccc(O)cc1)C(=O)N[C@H](C(=O)N[C@@H](CO)C(=O)N[C@@H](CC(C)C)C(=O)N[C@@H](CCCNC(=N)N)C(=O)N[C@@H](Cc1c[nH]cn1)C(=O)N[C@@H](Cc1ccc(O)cc1)C(=O)N[C@@H](Cc1c[nH]c2ccccc12)C(=O)N[C@@H](CC(N)=O)C(=O)N[C@@H](Cc1ccc(O)cc1)C(=O)N[C@@H](CC(C)C)C(=O)N[C@H](C(=O)N[C@@H](CCCNC(=N)N)C(=O)N[C@@H](CCC(N)=O)C(=O)N[C@@H](CCCNC(=N)N)C(=O)N[C@@H](Cc1ccc(O)cc1)C(N)=O)[C@@H](C)O)C(C)C` [Compound 158, N{alpha-4}-(3-methylbutanoyl)-N{epsilon-7}-[2-(2-{2-[2-(2-{2-[(4S)-4-carboxy-4-(17-carboxyheptadecanamido)butanamido]ethoxy}ethoxy)acetamido]ethoxy}ethoxy)acetamido]-[4A,7K,9E,18Q,22V,28W,30Y,31L]hPYY (4-36)] (Isovaleryl-APEK([AEEA-AEEA-γGlu-C18 diacid])PEEDASPEELQRYYVSLRHYWNYLTRQRY-NH2), the Ki is 4.43 nM. With `CC(C)CC(=O)N[C@@H](C)C(=O)N1CCC[C@H]1C(=O)N[C@@H](CCC(=O)O)C(=O)N[C@@H](CCCCNC(=O)COCCOCCNC(=O)COCCOCCNC(=O)CC[C@H](NC(=O)CCCCCCCCCCCCCCCCC(=O)O)C(=O)O)C(=O)N1CCC[C@H]1C(=O)N[C@@H](CCC(=O)O)C(=O)N[C@@H](C)C(=O)N[C@@H](CC(=O)O)C(=O)N[C@@H](C)C(=O)N[C@@H](CCC(=O)O)C(=O)N1CCC[C@H]1C(=O)N[C@@H](CCC(=O)O)C(=O)N[C@@H](CCC(=O)O)C(=O)N[C@@H](CC(C)C)C(=O)N[C@@H](CCC(N)=O)C(=O)N[C@@H](CCCNC(=N)N)C(=O)N[C@@H](Cc1ccc(O)cc1)C(=O)N[C@@H](Cc1ccc(O)cc1)C(=O)N[C@H](C(=O)N[C@@H](CO)C(=O)N[C@@H](CC(C)C)C(=O)N[C@@H](CCCNC(=N)N)C(=O)N[C@@H](Cc1c[nH]cn1)C(=O)N[C@@H](Cc1ccc(O)cc1)C(=O)N[C@@H](Cc1ccc(O)cc1)C(=O)N[C@@H](CC(N)=O)C(=O)N[C@@H](Cc1c[nH]c2ccccc12)C(=O)N[C@@H](CC(C)C)C(=O)N[C@H](C(=O)N[C@@H](CCCNC(=N)N)C(=O)N[C@@H](CCC(N)=O)C(=O)N[C@@H](CCCNC(=N)N)C(=O)N[C@@H](Cc1ccc(O)cc1)C(N)=O)[C@@H](C)O)[C@@H](C)O` [Compound 160, N{alpha-4}-(3-methylbutanoyl)-N{epsilon-7}-[2-(2-{2-[2-(2-{2-[(4S)-4-carboxy-4-(17-carboxyheptadecanamido)butanamido]ethoxy}ethoxy)acetamido]ethoxy}ethoxy)acetamido]-[4A,7K,9E,10A,13E,18Q,22T,28Y,30W,31L]hPYY (4-36)] (Isovaleryl-APEK([AEEA-AEEA-γGlu-C18 diacid])PEADAEPEELQRYYTSLRHYYNWLTRQRY-NH2), the Ki turned out to be 2 nM. The same measure for `CC(C)CC(=O)N[C@@H](C)C(=O)N1CCC[C@H]1C(=O)N[C@@H](CCC(=O)O)C(=O)N[C@@H](CCCCNC(=O)COCCOCCNC(=O)COCCOCCNC(=O)CC[C@H](NC(=O)CCCCCCCCCCCCCCCCC(=O)O)C(=O)O)C(=O)N1CCC[C@H]1C(=O)N[C@@H](CCC(=O)O)C(=O)N[C@@H](CCC(=O)O)C(=O)N[C@@H](CC(=O)O)C(=O)N[C@@H](C)C(=O)N[C@@H](CO)C(=O)N1CCC[C@H]1C(=O)N[C@@H](CCC(=O)O)C(=O)N[C@@H](CCC(=O)O)C(=O)N[C@@H](CC(C)C)C(=O)N[C@@H](CCC(N)=O)C(=O)N[C@@H](CCCNC(=N)N)C(=O)N[C@@H](Cc1ccc(O)cc1)C(=O)N[C@@H](CCC(N)=O)C(=O)N[C@H](C(=O)N[C@@H](CO)C(=O)N[C@@H](CC(C)C)C(=O)N[C@@H](CCCNC(=N)N)C(=O)N[C@@H](Cc1c[nH]cn1)C(=O)N[C@@H](Cc1ccc(O)cc1)C(=O)N[C@@H](Cc1ccc(O)cc1)C(=O)N[C@@H](CC(N)=O)C(=O)N[C@@H](Cc1c[nH]c2ccccc12)C(=O)N[C@@H](CC(C)C)C(=O)N[C@H](C(=O)N[C@@H](CCCNC(=N)N)C(=O)N[C@@H](CCC(N)=O)C(=O)N[C@@H](CCCNC(=N)N)C(=O)N[C@@H](Cc1ccc(O)cc1)C(N)=O)[C@@H](C)O)C(C)C` [Compound 165, N{alpha-4}-(3-methylbutanoyl)-N{epsilon-7}-[2-(2-{2-[2-(2-{2-[(4S)-4-carboxy-4-(17-carboxyheptadecanamido)butanamido]ethoxy}ethoxy)acetamido]ethoxy}ethoxy)acetamido]-[4A,7K,9E,18Q,21Q,22V,28Y,30W,31L]hPYY (4-36)]: 2.49 nM.
